Experimental findings from patent US12122761B2, “2-azaspiro[3.4]octane derivatives as M4 agonists” (NOVARTIS AG, priority 2019, dated 2024) are described below.

For the assay, the target named is T1, Cloned human M1 receptor (CHRM1) stably expressed in HEK293 cells (Homo sapiens, UniProt P11229).
T1 construct: expressed in transfected cells; host or cells: HEK293
T1 sequence (P11229 1-460): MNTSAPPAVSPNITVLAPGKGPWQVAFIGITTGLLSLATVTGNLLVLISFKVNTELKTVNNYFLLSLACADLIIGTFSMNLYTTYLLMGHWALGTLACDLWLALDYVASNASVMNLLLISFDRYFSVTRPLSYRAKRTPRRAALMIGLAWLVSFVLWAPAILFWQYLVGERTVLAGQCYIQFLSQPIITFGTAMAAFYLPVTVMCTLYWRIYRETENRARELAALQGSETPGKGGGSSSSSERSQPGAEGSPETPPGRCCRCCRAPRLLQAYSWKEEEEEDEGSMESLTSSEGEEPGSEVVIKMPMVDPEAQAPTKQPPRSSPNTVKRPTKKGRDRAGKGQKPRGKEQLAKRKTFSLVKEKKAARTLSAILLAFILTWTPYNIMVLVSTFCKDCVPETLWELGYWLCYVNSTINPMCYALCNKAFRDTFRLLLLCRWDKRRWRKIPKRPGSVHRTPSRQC
The assay can be described thus: CHRM1 Ca++ Flux Assay (agonist mode, FDSS 7000EX). Type of assay: cell-based. The following applies: for M1 FDSS PA: Percent Activity; for EC50: geometric mean if tested more than once. Here is the method: The above examples were characterized by measuring the intracellular mobilization of Ca++ ions caused by signaling events mediated by the receptor. The Intra-cellular Calcium flux levels were captured by the highly sensitive Ca++ indicator, Calcium Assay Kit (BD Biosciences, Catalog Number 640178). The fluorescent activity from all receptors were monitored by the fluorescent imager, FDSS 7000EX (Hamamatsu) over a span of 3 minutes.
Cloned human M1 receptor (CHRM1) was stably expressed in HEK293 cells and were grown and maintained in a monolayer culture with DMEM/High Glucose (Life Technologies) supplemented with 10% Fetal Bovine Serum, 1× Pen-Strep, and 0.5 mg/mL Geneticin in a humidified atmosphere (5% CO2) at 37° C. The cultures were grown to 90% confluency in T150 flasks (Corning) and washed with 1×DPBS and lifted with 0.05% Trypsin (Life Technologies). The cells were then spun (1K rpm, 3 minutes) and frozen using Recovery Cell Culture Freezing Media (Gibco Technologies). Cells were stored in liquid nitrogen and thawed a day before the assay.
Prior to the day of the assay, stable HEK293 M1 cells were thawed and plated on 384 well black walled clear bottom TC treated plates (Greiner Cat #781091) at 25K cells/well with DMEM/High Glucose supplemented with 10% FBS (Hyclone) Pen-Strep (Life Technologies) and kept overnight in a humidified atmosphere (5% CO2) at 37° C. The following day, cells were loaded with 20 uL Ca^++ dye (BD Biosciences) using Loading Buffer (HBSS +Ca/+Mg, 20 mM HEPES) and placed back in cell incubator for a minimum of 1 hour. The dye was replaced with 45 μL Assay Buffer (HBSS −Ca/−Mg, 20 mM HEPES) and kept at room temperature prior to running on cell imager. Compounds were prepared in Assay Buffer and 5 uL was added to the cells. The FDSS 7000EX (Hamamatsu) was used to acquire Ca++ traces for 3 minutes from cells treated with 11 point dose in triplicate in order to generate dose response curves in agonist mode. All compounds were serially diluted in DMSO then prepared in Assay Buffer for Ca^++ flux studies. The dose response curves were generated from the average of triplicate wells obtained from each data point and used a non-linear regression of four parameter dose response algorithm. The Percent Activity (PA) was measured to EC100 of Carbachol.

For orientation: EC50 means the concentration needed to bring the measured effect to its halfway point. A higher EC50 goes with weaker potency.

Take `O[C@H]1CC[C@@H](c2ccccc2C2CCN([C@@H]3CCC4(C3)CN(c3nnco3)C4)CC2)CC1` (single isomer, unassigned) [Example 2N, (1S,4s)-4-(2-(1-((R)-2-(1,3,4-oxadiazol-2-yl)-2-azaspiro[3.4]octan-6-yl)piperidin-4-yl)phenyl)cyclohexan-1-ol or (1R,4r)-4-(2-(1-((R)-2-(1,3,4-oxadiazol-2-yl)-2-azaspiro[3.4]octan-6-yl)piperidin-4-yl)phenyl)cyclohexan-1-ol]: the “M1 FDSS PA” value was determined as 69% and the midpoint of the response, the EC50, lay at 302 nM.

Turning to `OC1CCC(c2ccccc2C2CCN([C@@H]3CCC4(C3)CN(c3nnco3)C4)CC2)CC1` (single isomer, unassigned) [Example 2O, (1s,4r)-4-(2-(1-((R)-2-(1,3,4-oxadiazol-2-yl)-2-azaspiro[3.4]octan-6-yl)piperidin-4-yl)phenyl)cyclohexan-1-ol or (1r,4r)-4-(2-(1-((R)-2-(1,3,4-oxadiazol-2-yl)-2-azaspiro[3.4]octan-6-yl)piperidin-4-yl)phenyl)cyclohexan-1-ol], the “M1 FDSS PA” value amounted to 77% and the EC50 amounted to 81 nM.

Consider `O=C(N1CC2(CC[C@@H](N3CCC(c4ccccc4OCCC(F)(F)F)CC3)C2)C1)C1(F)CC1` (single isomer, unassigned) [Example 7AA, (R)-(1-fluorocyclopropyl)(6-(4-(2-(3,3,3-trifluoropropoxy)phenyl)piperidin-1-yl)-2-azaspiro[3.4]octan-2-yl)methanone or (S)-(1-fluorocyclopropyl)(6-(4-(2-(3,3,3-trifluoropropoxy)phenyl)piperidin-1-yl)-2-azaspiro[3.4]octan-2-yl)methanone], for which the “M1 FDSS PA” value is recorded as 57% and the EC50 amounted to 139 nM.

As to `CC(C)(O)CCOc1ccccc1C1CCN([C@@H]2CCC3(C2)CN(C(=O)C2(F)CC2)C3)CC1` (single isomer, unassigned) [Example 7BB, (R)-(1-fluorocyclopropyl)(6-(4-(2-(3-hydroxy-3-methylbutoxy)phenyl)piperidin-1-yl)-2-azaspiro[3.4]octan-2-yl)methanone or (S)-(1-fluorocyclopropyl)(6-(4-(2-(3-hydroxy-3-methylbutoxy)phenyl)piperidin-1-yl)-2-azaspiro[3.4]octan-2-yl)methanone], the “M1 FDSS PA” value is recorded as 55% and a half-maximal effect (EC50) was put at 13 nM.

As for `COC(C)(C)CCOc1ccccc1C1CCN([C@@H]2CCC3(C2)CN(C(=O)C2(F)CC2)C3)CC1` (single isomer, unassigned) [Example 7FF, (R)-(1-fluorocyclopropyl)(6-(4-(2-(3-methoxy-3-methylbutoxy)phenyl)piperidin-1-yl)-2-azaspiro[3.4]octan-2-yl)methanone or (S)-(1-fluorocyclopropyl)(6-(4-(2-(3-methoxy-3-methylbutoxy)phenyl)piperidin-1-yl)-2-azaspiro[3.4]octan-2-yl)methanone], the “M1 FDSS PA” value turned out to be 7% and the EC50 was 182 nM.

Take `O=C(N1CC2(CC[C@@H](N3CCC(c4ccccc4OCc4ncccn4)CC3)C2)C1)C1(F)CC1` (single isomer, unassigned) [Example 7M, (R)-(1-fluorocyclopropyl)(6-(4-(2-(pyrimidin-2-ylmethoxy)phenyl)piperidin-1-yl)-2-azaspiro[3.4]octan-2-yl)methanone or (S)-(1-fluorocyclopropyl)(6-(4-(2-(pyrimidin-2-ylmethoxy)phenyl)piperidin-1-yl)-2-azaspiro[3.4]octan-2-yl)methanone]: the “M1 FDSS PA” value stood at 84% and the EC50 was 10 nM.

`O=C(N1CC2(CC[C@@H](N3CCC(c4ccccc4OCCO)CC3)C2)C1)C1(F)CC1` (single isomer, unassigned) [Example 7N, (R)-(1-fluorocyclopropyl)(6-(4-(2-(2-hydroxyethoxy)phenyl)piperidin-1-yl)-2-azaspiro[3.4]octan-2-yl)methanone or (S)-(1-fluorocyclopropyl)(6-(4-(2-(2-hydroxyethoxy)phenyl)piperidin-1-yl)-2-azaspiro[3.4]octan-2-yl)methanone]: the “M1 FDSS PA” value is 45% and the EC50 was determined as 22 nM.

For the compound `O=C(N1CC2(CC[C@@H](N3CCC(c4ccccc4OCC4CC4)CC3)C2)C1)C1(F)CC1` (single isomer, unassigned) [Example 7O, (R)-(6-(4-(2-(cyclopropylmethoxy)phenyl)piperidin-1-yl)-2-azaspiro[3.4]octan-2-yl)(1-fluorocyclopropyl)methanone or (R)-(6-(4-(2-(cyclopropylmethoxy)phenyl)piperidin-1-yl)-2-azaspiro[3.4]octan-2-yl)(1-fluorocyclopropyl)methanone], the “M1 FDSS PA” value is recorded as 57% and the concentration giving a half-maximal response (EC50) came to 37 nM.

As for `O=C1CCCN1CCOc1ccccc1C1CCN([C@@H]2CCC3(C2)CN(C(=O)C2(F)CC2)C3)CC1.O=CO` (single isomer, unassigned) [Example 7P, (R)-1-(2-(2-(1-(2-(1-fluorocyclopropane-1-carbonyl)-2-azaspiro[3.4]octan-6-yl)piperidin-4-yl)phenoxy)ethyl)pyrrolidin-2-one formate salt or (S)-1-(2-(2-(1-(2-(1-fluorocyclopropane-1-carbonyl)-2-azaspiro[3.4]octan-6-yl)piperidin-4-yl)phenoxy)ethyl)pyrrolidin-2-one formate salt], the “M1 FDSS PA” value amounted to 46% and the response was half-maximal at 29 nM (EC50).

Consider `O=C(N1CC2(CC[C@@H](N3CCC(c4ccccc4OCC4CCOCC4)CC3)C2)C1)C1(F)CC1` (single isomer, unassigned) [Example 7Q, (R)-(1-fluorocyclopropyl)(6-(4-(2-((tetrahydro-2H-pyran-4-yl)methoxy)phenyl)piperidin-1-yl)-2-azaspiro[3.4]octan-2-yl)methanone or (S)-(1-fluorocyclopropyl)(6-(4-(2-((tetrahydro-2H-pyran-4-yl)methoxy)phenyl)piperidin-1-yl)-2-azaspiro[3.4]octan-2-yl)methanone], for which the “M1 FDSS PA” value was found to be 37% and the EC50 is 135 nM.

Turning to `Cc1nnc(COc2ccccc2C2CCN([C@@H]3CCC4(C3)CN(C(=O)C3(F)CC3)C4)CC2)s1` (single isomer, unassigned) [Example 7R, (R)-(1-fluorocyclopropyl)(6-(4-(2-((5-methyl-1,3,4-thiadiazol-2-yl)methoxy)phenyl)piperidin-1-yl)-2-azaspiro[3.4]octan-2-yl)methanone or (S)-(1-fluorocyclopropyl)(6-(4-(2-((5-methyl-1,3,4-thiadiazol-2-yl)methoxy)phenyl)piperidin-1-yl)-2-azaspiro[3.4]octan-2-yl)methanone], the “M1 FDSS PA” value is 0% and the EC50 is over 25000 nM.

Take `CCOc1ccccc1C1CCN([C@@H]2CCC3(C2)CN(C(=O)C2(F)CC2)C3)CC1` (single isomer, unassigned) [Example 7S, (R)-(6-(4-(2-ethoxyphenyl)piperidin-1-yl)-2-azaspiro[3.4]octan-2-yl)(1-fluorocyclopropyl)methanone or (S)-(6-(4-(2-ethoxyphenyl)piperidin-1-yl)-2-azaspiro[3.4]octan-2-yl)(1-fluorocyclopropyl)methanone]: the “M1 FDSS PA” value is recorded as 0% and the EC50 was over 25000 nM.

Regarding `O=C(N1CC2(CC[C@@H](N3CCC(c4ccccc4OCC4CC4)CC3)C2)C1)C1(F)CC1` (single isomer, unassigned) [Example 7T, (R)-(6-(4-(2-(cyclopropylmethoxy)phenyl)piperidin-1-yl)-2-azaspiro[3.4]octan-2-yl)(1-fluorocyclopropyl)methanone or (R)-(6-(4-(2-(cyclopropylmethoxy)phenyl)piperidin-1-yl)-2-azaspiro[3.4]octan-2-yl)(1-fluorocyclopropyl)methanone], the “M1 FDSS PA” value is 32% and a half-maximal response (EC50) required 4350 nM.
